Test system: subject with AF/AFL
Test: Initiation of IV sotalol followed by first oral dose and same-day discharge (case Examples 1-12)
Format: in vivo, human
Description: • 1. After admission, obtain baseline parameters including QTc interval, HR, BP. • 2. […] Monitor QTc interval, HR, BP every 15 minutes during infusion. • 4. Administer first oral dose at the appropriate time based on renal function. For CrCl≥60 mL/min, oral administration time is planned 4 hours following the completion of IV infusion. For CrCl=30-59 mL/min, oral administration time is planned 6 hours following the completion of IV infusion. • 5. Obtain monitoring parameters including QTc interval, HR, BP at about 2 hours after oral administration. • 6. […] At arrival, baseline labs were obtained, and the subject was placed on continuous electrocardiogra monitoring. […] At arrival, baseline labs were obtained, and the subject was placed on continuous electrocardiography monitoring. […] At arrival, baseline labs were obtained, and the subject was placed on continuous electrocardiography monitoring. […] At arrival, baseline labs were obtained, and the subject was placed on continuous electrocardiography monitoring. […] At arrival, baseline labs were obtained, and the subject was placed on continuous electrocardiography monitoring. […] At arrival, baseline labs were obtained, and the subject was placed on continuous electrocardiography monitoring. […] At arrival, baseline labs were obtained, and the subject was placed on continuous electrocardiography monitoring. […] At arrival, baseline labs were obtained, and the subject was placed on continuous electrocardiography monitoring. […] At arrival, baseline labs were obtained, and the subject was placed on continuous electrocardiography monitoring. […] At arrival, baseline labs were obtained, and the subject was placed on continuous electrocardiography monitoring. […] At arrival, baseline labs were obtained, and the subject was placed on continuous electrocardiography monitoring. […] At arrival, baseline labs were obtained, and the subject was placed on continuous electrocardiography monitoring.

[1] = Example 1: IV 82.5 mg, DCCV, PO 80 mg 4 h after IV completion
[2] = Example 2: IV 82.5 mg, PO 80 mg 4 h after IV completion
[3] = Example 3: IV 75 mg, DCCV, PO 80 mg 5.5 h after IV completion
[4] = Example 4: IV 75 mg, DCCV, PO 80 mg 6.5 h after IV completion
[5] = Example 5: IV 75 mg, DCCV, PO 80 mg 5 h after IV completion
[6] = Example 6: IV 75 mg, DCCV, PO 80 mg 5.5 h after IV completion
[7] = Example 7: IV 60 mg, PO 120 mg 5 h after IV completion, second DCCV
[8] = Example 8: IV 82.5 mg, DCCV, PO 80 mg 4 h after IV completion
[9] = Example 9: IV 90 mg, DCCV, PO 120 mg 3.5 h after IV completion
[10] = Example 10: IV 75 mg, DCCV, PO 80 mg 6 h after IV completion
[11] = Example 11: IV 75 mg, DCCV, PO 80 mg 6 h after IV completion
[12] = Example 12: IV 75 mg, DCCV, PO 80 mg 6 h after IV completion

CC(C)NCC(O)c1ccc(NS(C)(=O)=O)cc1 (stereo not shown) [sotalol, d,1-sotalol]
Monitoring parameters (QTc, HR, BP) two hours after oral administration [1]: within normal limits | Rhythm two hours after oral administration [1]: remained in NSR | Rhythm conversion after IV sotalol infusion (Example 1: person, persistent AF/AFL, IV 82.5 mg over 1 h, then DCCV): converted from AF to NSR | Monitoring parameters (QTc, HR, BP) two hours after oral administration [2]: within normal limits | Rhythm two hours after oral administration [2]: remained in NSR | Rhythm conversion after IV sotalol infusion (Example 2: person, paroxysmal AF and PVCs, IV 82.5 mg over 1 h, no DCCV): converted from AF to NSR | Monitoring parameters including QTc two hours after oral administration [3]: within normal limits | Rhythm two hours after oral administration [3]: remained in NSR | Rhythm conversion after IV sotalol infusion (Example 3: person, persistent AF, CrCl 30 mL/min, IV 75 mg over 1 h, then DCCV): converted from AF to NSR | Monitoring parameters including QTc two hours after oral administration [4]: within normal limits | Rhythm two hours after oral administration [4]: remained in NSR | Rhythm conversion after IV sotalol infusion (Example 4: person, persistent AF, CrCl 38 mL/min, IV 75 mg over 1 h, then DCCV): converted from AF to NSR | Monitoring parameters including QTc two hours after oral administration [5]: within normal limits | Rhythm two hours after oral administration [5]: remained in NSR | Rhythm conversion after IV sotalol infusion (Example 5: person, persistent AF, CrCl 37 mL/min, IV 75 mg over 1 h, then DCCV): converted from AF to NSR | Monitoring parameters including QTc two hours after oral administration [6]: within normal limits | Rhythm two hours after oral administration [6]: remained in NSR | Rhythm conversion after IV sotalol infusion (Example 6: person, PVCs and paroxysmal AF, CrCl 41 mL/min, IV 75 mg over 1 h, then DCCV): converting the subject from AF to NSR | Monitoring parameters (QTc, HR, BP) two hours after oral administration [7]: within normal limits | Rhythm two hours after oral administration [7]: remained in NSR | Rhythm conversion after first oral dose and second DCCV (Example 7: IV 60 mg, PO 120 mg 5 h after IV completion, then second DCCV): converted from AF to NSR | Rhythm conversion after IV sotalol infusion and first DCCV attempt (Example 7: person, persistent AF, IV 60 mg over 1 h, then first DCCV): failed to convert | Monitoring parameters (QTc, HR, BP) two hours after oral administration [8]: within normal limits | Rhythm two hours after oral administration [8]: remained in NSR | Rhythm conversion after IV sotalol infusion (Example 8: person, persistent AF, IV 82.5 mg over 1 h, then DCCV): converted from AF to NSR | Monitoring parameters (QTc, HR, BP) two hours after oral administration [9]: within normal limits | Rhythm two hours after oral administration [9]: remained in NSR | Rhythm conversion after IV sotalol infusion (Example 9: person, persistent AF, IV 90 mg over 1 h, then DCCV): converting the subject from AF to NSR | Monitoring parameters (QTc, HR, BP) two hours after oral administration [10]: within normal limits | Rhythm two hours after oral administration [10]: remained in NSR | Rhythm conversion after IV sotalol infusion (Example 10: person, persistent AF, CrCl 56 mL/min, IV 75 mg over 1 h, then DCCV): converted from AF to NSR | Monitoring parameters (QTc, HR, BP) two hours after oral administration [11]: within normal limits | Rhythm two hours after oral administration [11]: remained in NSR | Rhythm conversion after IV sotalol infusion (Example 11: person, persistent AF, CrCl 50 mL/min, IV 75 mg over 1 h, then DCCV): converted from AF to NSR | Monitoring parameters (QTc, HR, BP) two hours after oral administration [12]: within normal limits | Rhythm two hours after oral administration [12]: remained in NSR | Rhythm conversion after IV sotalol infusion (Example 12: person, PVCs and persistent AF, CrCl 53 mL/min, IV 75 mg over 1 h, then DCCV): converted from AF to NSR
